In patent publication US12570615B2, “Quinazolinone derivatives” (Hoffmann-La Roche Inc., priority 2021, dated 2026) one finds IC50, Kd and EC50 data, which are given here for one compound.

Each structure is given as a SMILES string.

In experiment [1] the test system is P-ERK (ERK phospho-T202/Y204) in A375 cells expressing V600E mutated BRAF. The experiment is described as follows: HTRF assay for P-ERK determination in A375 cells (BRAF inhibition). It is filed as cell-based. As to conditions: Homo sapiens, A-375, P-ERK level, drug incubation 1 hour, DMSO = 100%, 10 μM Dabrafenib = 0%. The method, boiled down:
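A375 cells (8000/well) in DMEM with 10% FBS, plated overnight at 37 °C, then treated with compound at 0.001-10 μM final for 1 h. After lysis, ERK phospho-T202/Y204 was read by HTRF (665/620 nm ratio, blank-subtracted). Normalised to DMSO (100%) and 10 μM dabrafenib (0%); IC50 from sigmoidal fit.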

A further experiment addresses BRAF (wt) (Homo sapiens, UniProt P15056). The experiment is described as follows: KD BRAF (wt) (Table 1). It is filed as binding.
Experiment [2] relates to P-ERK (ERK phospho-T202/Y204) in HCT116 cells expressing WT BRAF. Kind of experiment: HTRF assay for P-ERK determination in HCT116 cells (BRAF activation). The format is cell-based. As to conditions: Homo sapiens, HCT-116, drug incubation 1 hour, concentration giving 50% of the maximum activation achieved by Dabrafenib. The method, boiled down: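 HCT116 cells (WT BRAF) were treated for 1 h at 37 °C in duplicate with compounds from 10 μM to 0.001 μM, then lysed. Phospho-ERK (T202/Y204) was read by HTRF at 665/620 nm. EC50 was taken from sigmoidal or bell-shaped fits, with DMSO set as 0% and the maximal dabrafenib signal as 100%.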

The next experiment concerns the target BRAF (V600E) (Homo sapiens, UniProt P15056, V600E). Kind of experiment: KD BRAF (V600E) (Table 1). It is filed as binding.

Chain of BRAF (wt) (P15056 whole entry): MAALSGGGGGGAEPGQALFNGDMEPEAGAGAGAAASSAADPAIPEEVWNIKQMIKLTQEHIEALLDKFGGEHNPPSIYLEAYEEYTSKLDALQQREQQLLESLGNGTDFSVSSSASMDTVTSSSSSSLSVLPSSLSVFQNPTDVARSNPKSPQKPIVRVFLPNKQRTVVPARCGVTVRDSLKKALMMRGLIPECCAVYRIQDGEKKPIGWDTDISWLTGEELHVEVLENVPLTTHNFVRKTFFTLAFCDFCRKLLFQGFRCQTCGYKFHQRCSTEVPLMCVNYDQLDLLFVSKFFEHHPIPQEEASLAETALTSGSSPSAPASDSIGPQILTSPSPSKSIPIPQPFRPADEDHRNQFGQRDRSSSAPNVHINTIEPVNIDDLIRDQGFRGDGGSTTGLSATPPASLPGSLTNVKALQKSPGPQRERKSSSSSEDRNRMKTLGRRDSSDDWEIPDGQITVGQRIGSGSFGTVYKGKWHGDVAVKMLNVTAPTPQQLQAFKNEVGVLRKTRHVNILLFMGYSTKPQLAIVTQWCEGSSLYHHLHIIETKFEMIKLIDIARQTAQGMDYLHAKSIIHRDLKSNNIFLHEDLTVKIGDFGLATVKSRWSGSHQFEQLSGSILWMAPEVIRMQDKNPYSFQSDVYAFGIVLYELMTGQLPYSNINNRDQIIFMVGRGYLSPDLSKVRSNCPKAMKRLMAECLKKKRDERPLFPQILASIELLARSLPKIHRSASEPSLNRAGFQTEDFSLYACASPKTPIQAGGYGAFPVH
Chain of BRAF (V600E) (P15056 whole entry V600E): as the sequence (P15056 whole entry) above, with V600E counted along it

The compound `CC(C)(C)OC(=O)NCCCn1cnc2ccc(Oc3c(F)ccc(NS(=O)(=O)N4CC[C@@H](F)C4)c3C#N)cc2c1=O` [Example 4, tert-butyl N-[3-[6-[2-cyano-6-fluoro-3-[[(3R)-3-fluoropyrrolidin-1-yl]sulfonylamino]phenoxy]-4-oxo-quinazolin-3-yl]propyl]carbamate] returned an IC50 in experiment [1] of 73.5 nM. Also, the figures for the Kd at BRAF (wt) and at BRAF (V600E) were 1.09 nM and 2.75 nM, respectively. In experiment [2], a half-maximal response (EC50) required 7080 nM.

The IC50 is the point on the concentration scale where inhibition reaches its midpoint. Read a high IC50 as weaker potency. Broadly, the Kd is the free concentration of one partner at which half of the binding sites on the other are occupied at equilibrium, for simple one-to-one binding. A high value points to lower affinity. One may read the EC50 as the concentration giving half of the maximal effect. Lower therefore signals an effect from little substance.
